Test results from patent US9895342B2, “Cannabinoids for use in the treatment of neuropathic pain” (GW Pharma Limited, priority 2011, dated 2018).

Test system: SNI mice
Assay: Thermal hyperalgesia (Plantar Test Apparatus, paw withdrawal latency) in spared nerve injury mice
Type: in vivo
Conditions: 2.5 mg/kg
Experimental: (§1) Peripheral neuropathic pain is produced by multiple etiological factors that initiate a number of diverse mechanisms at different sites and in different disease states. Spared nerve injury (SNI) consists of partial ligation and transaction of the sciatic nerve which evolves in neuropathic pain whose typical manifestations are represented by thermal hyperalgesia and tactile allodynia.
(§2) Chronic pain symptoms are measured through changes in thermoceptive responses (which is indicative of thermal hyperalgesia) using Plantar Test Apparatus (Ugo Basile, Varese, Italy) and in mechanical paw withdrawal threshold (which is indicative of mechanical allodynia) by a Dynamic Plantar Aesthesiometer (Ugo Basile, Varese, Italy). Nociceptive responses were measured before and after surgery in groups of mice differently treated (vehicle or drugs different combinations).
(§3) The cannabinoids tested were CBG, CBC, CBDV, and THCV. […] The cannabinoids were prepared from whole plant extracts of cannabis plants which had been purified. The cannabinoids were dissolved in ringer/0.5% dimethyl sulfoxide (DMSO), for intraperitoneal (i.p.) administration.
(§4) Male CD-1 mice (35-40 g) were housed, 3 per cage, under controlled illumination (12:12 h light:dark cycle; light on 06.00 h) and environmental conditions (room temperature 20-22° C., humidity 55-60%) for at least 1 week before the commencement of experiments. Mouse chow and tap water were available ad libitum. The experimental procedures were approved by the Ethic Committee of the Second University of Naples. Animal care was in compliance with the IASP and European Community (E.C. L358/1 18/12/86) guidelines on the use and protection of animals in experimental research. All efforts were made to minimize animal suffering and to reduce the number of animals used.
(§5) Behavioural testing was performed before surgery to establish a baseline for comparison with post-surgical values. Mononeuropathy was induced according to the method of Bourquin and Decosterd (2006).
(§6) Mice were anaesthetized with sodium pentobarbital (60 mg/kg i.p.). The right hindlimb was immobilized in a lateral position and slightly elevated. Incision was made at mid-thigh level using the femur as a landmark. The sciatic nerve was exposed at mid-thigh level distal to the trifurcation and freed of connective tissue; the three peripheral branches (sural, common peroneal, and tibial nerves) of the sciatic nerve were exposed without stretching nerve structures.
(§7) Both tibial and common peroneal nerves were ligated and transacted together. A micro-surgical forceps with curved tips was delicately placed below the tibial and common peroneal nerves to slide the thread (5.0 silk, Ethicon, Johnson, and Johnson Intl, Brussels, Belgium) around the nerves. A tight ligation of both nerves was performed. The sural nerve was carefully preserved by avoiding any nerve stretch or nerve contact with surgical tools. Muscle and skin were closed in two distinct layers with silk 5.0 sutures.
(§8) Intense, reproducible and long-lasting thermal hyperalgesia and mechanical allodynia-like behaviors are measurable in the non-injured sural nerve skin territory. The SNI model offers the advantage of a distinct anatomical distribution with an absence of co-mingling of injured and non-injured nerve fibers distal to the lesion such as the injured and non-injured nerves and territories can be readily identified and manipulated for further analysis (i.e. behavioral assessment).
(§9) The sham procedure consisted of the same surgery without ligation and transection of the nerves.
(§10) The groups of mice were divided as follows, each cannabinoid tested has its own group of mice:
(§11) The cannabinoids were dosed daily for 14 days. Doses for all cannabinoids tested were: 2.5 and 5.0 mg/Kg. Vehicle solution was 0.5% DMSO in ringer solution.
Thermal hyperalgesia was evaluated by using a Plantar Test Apparatus (Ugo Basile, Varese, Italy). […]

SMILES	overall efficacy, thermal withdrawal
CCCc1cc(O)c2c(c1)OC(C)(C)[C@@H]1CCC(C)=C[C@@H]21 [THCV, tetrahydrocannabivarin]	good efficacy

Same assay, conditions: 2.5 mg/kg, day 7 to day 14

SMILES	thermal withdrawal latency, course over time
CCCc1cc(O)c2c(c1)OC(C)(C)[C@@H]1CCC(C)=C[C@@H]21 [THCV, tetrahydrocannabivarin]	large increase at the day 7 time point which then decreases after a further 7 days

Same assay, conditions: 5.0 mg/kg

SMILES	overall efficacy, thermal withdrawal
CCCc1cc(O)c2c(c1)OC(C)(C)[C@@H]1CCC(C)=C[C@@H]21 [THCV, tetrahydrocannabivarin]	most effective

Same assay, conditions: 5.0 mg/kg, 14 days

SMILES	THERMAL WITHDRAWAL LATENCY
CCCc1cc(O)c2c(c1)OC(C)(C)[C@@H]1CCC(C)=C[C@@H]21 [THCV, tetrahydrocannabivarin]	large increase

Same assay, conditions: 2.5 vs 5 mg/kg

SMILES	dose-dependence of effect on thermal withdrawal latency
CCCc1cc(O)c2c(c1)OC(C)(C)[C@@H]1CCC(C)=C[C@@H]21 [THCV, tetrahydrocannabivarin]	do not appear to be dose-dependent

Same assay, conditions: SNI mice, 2.5 mg/kg i.p. daily, DAY 3

SMILES	THERMAL WITHDRAWAL LATENCY [s]
CCCc1cc(O)c2c(c1)OC(C)(C)[C@@H]1CCC(C)=C[C@@H]21 [THCV, tetrahydrocannabivarin]	3.8

Same assay, conditions: SNI mice, 2.5 mg/kg i.p. daily, DAY 7

SMILES	THERMAL WITHDRAWAL LATENCY [s]
CCCc1cc(O)c2c(c1)OC(C)(C)[C@@H]1CCC(C)=C[C@@H]21 [THCV, tetrahydrocannabivarin]	9.8

Same assay, conditions: SNI mice, 2.5 mg/kg i.p. daily, DAY 14

SMILES	THERMAL WITHDRAWAL LATENCY [s]
CCCc1cc(O)c2c(c1)OC(C)(C)[C@@H]1CCC(C)=C[C@@H]21 [THCV, tetrahydrocannabivarin]	7.6

Same assay, conditions: SNI mice, 5 mg/kg i.p. daily, DAY 3

SMILES	THERMAL WITHDRAWAL LATENCY [s]
CCCc1cc(O)c2c(c1)OC(C)(C)[C@@H]1CCC(C)=C[C@@H]21 [THCV, tetrahydrocannabivarin]	3.9

Same assay, conditions: SNI mice, 5 mg/kg i.p. daily, DAY 7

SMILES	THERMAL WITHDRAWAL LATENCY [s]
CCCc1cc(O)c2c(c1)OC(C)(C)[C@@H]1CCC(C)=C[C@@H]21 [THCV, tetrahydrocannabivarin]	10.5

Same assay, conditions: SNI mice, 5 mg/kg i.p. daily, DAY 14

SMILES	THERMAL WITHDRAWAL LATENCY [s]
CCCc1cc(O)c2c(c1)OC(C)(C)[C@@H]1CCC(C)=C[C@@H]21 [THCV, tetrahydrocannabivarin]	11.9

Same assay, conditions: thermal withdrawal data

SMILES	ability to treat neuropathic pain compared with CBD
CCCc1cc(O)c2c(c1)OC(C)(C)[C@@H]1CCC(C)=C[C@@H]21 [THCV, tetrahydrocannabivarin]	superior to CBD

Test system: SNI mice
Assay: Mechanical allodynia (Dynamic Plantar Aesthesiometer, paw withdrawal threshold) in spared nerve injury mice
Type: in vivo
Conditions: SNI mice, 2.5 mg/kg i.p. daily, DAY 3
Experimental: as §1, §2, §3, §4, §5, §6, §7, §8, §9, §10, §11
Mechanical allodynia was measured by using Dynamic Plantar Anesthesiometer (Ugo Basile, Varese, Italy). […]

SMILES	MECHANICAL WITHDRAWAL THRESHOLD [g]
CCCc1cc(O)c2c(c1)OC(C)(C)[C@@H]1CCC(C)=C[C@@H]21 [THCV, tetrahydrocannabivarin]	3.0

Same assay, conditions: SNI mice, 2.5 mg/kg i.p. daily, DAY 7

SMILES	MECHANICAL WITHDRAWAL THRESHOLD [g]
CCCc1cc(O)c2c(c1)OC(C)(C)[C@@H]1CCC(C)=C[C@@H]21 [THCV, tetrahydrocannabivarin]	6.2

Same assay, conditions: SNI mice, 2.5 mg/kg i.p. daily, DAY 14

SMILES	MECHANICAL WITHDRAWAL THRESHOLD [g]
CCCc1cc(O)c2c(c1)OC(C)(C)[C@@H]1CCC(C)=C[C@@H]21 [THCV, tetrahydrocannabivarin]	7.5

Same assay, conditions: SNI mice, 5 mg/kg i.p. daily, DAY 3

SMILES	MECHANICAL WITHDRAWAL THRESHOLD [g]
CCCc1cc(O)c2c(c1)OC(C)(C)[C@@H]1CCC(C)=C[C@@H]21 [THCV, tetrahydrocannabivarin]	3.2

Same assay, conditions: SNI mice, 5 mg/kg i.p. daily, DAY 7

SMILES	MECHANICAL WITHDRAWAL THRESHOLD [g]
CCCc1cc(O)c2c(c1)OC(C)(C)[C@@H]1CCC(C)=C[C@@H]21 [THCV, tetrahydrocannabivarin]	8.5

Same assay, conditions: SNI mice, 5 mg/kg i.p. daily, DAY 14

SMILES	MECHANICAL WITHDRAWAL THRESHOLD [g]
CCCc1cc(O)c2c(c1)OC(C)(C)[C@@H]1CCC(C)=C[C@@H]21 [THCV, tetrahydrocannabivarin]	9.8

Same assay, conditions: both of the doses tested (2.5 and 5 mg/kg)

SMILES	overall efficacy, mechanical withdrawal
CCCc1cc(O)c2c(c1)OC(C)(C)[C@@H]1CCC(C)=C[C@@H]21 [THCV, tetrahydrocannabivarin]	good efficacy

Same assay, conditions: mechanical withdrawal data

SMILES	ability to treat neuropathic pain compared with CBD
CCCc1cc(O)c2c(c1)OC(C)(C)[C@@H]1CCC(C)=C[C@@H]21 [THCV, tetrahydrocannabivarin]	superior to CBD
